Test results as given in patent US7479267B2, “Cell-or organ-differentiation controllers and method of controlling morphogenesis by using the same” (Okayama Prefecture, priority 2000, dated 2009).
Read-outs that look alike come from different tables or passages of the source.

Columns and labels:
[1] = tested on: Nicotina tabacum L. callus; experiment: Regulation of formation of adventitious bud in callus; format: cell-based; details: 0.1 mM BSO, 1 mM GSH or 1 mM GSSG in adventitious formation medium; 3 weeks after induction
Description: Nicotina tabacum L. leaves grown aseptically was callused in a callus-inducible medium (an essential medium consisting of 1% agar and Murashige and Skoog medium (MS medium) supplied with 0.1 mg/L benzyladenine (BA) and […] naphthaleneacetic acid (NAA)). The resultant callus was transferred to an adventitious formation medium (an essential medium consisting of 1% agar and Murashige and Skoog medium (MS medium) supplied with 1 mg/L BA and […] NAA). To the adventitious-formation medium, 0.1 mM BSO, 1 mM GSH or 1 mM GSSG (oxidized glutathione) was added as a redox-state regulator. The same medium lacking in supplements was prepared and used as a control medium.

[2] = tested on: Arabidopsis thaliana late-flowering mutant fca; format: in vivo
Description: (§1) Arabidopsis thaliana late-flowering mutant fca (Accession No. N167) obtained from Arabidopsis Stock Center publicly established at the University of Nottingham (U.K.) and wild type plant Ler (Accession No. NW20) were grown at 23° C. under a day length condition of 16-h light/8-h dark cycle at 100 μE/m^2 light intensity and used in the experiments. As a medium, soil consisting of 2 Vermiculite (Asahi Kogyo), 2 Kureha molding for raising seedlings (KUREHA chemical industry Co., Ltd.) and 1 Vermiculite (Asahi Kogyo), which are stacked in layer as the lower, middle and the upper layers, respectively, was used.
(§2) BSO was dissolved in water at a final concentration of 10^−1M and used as a stock solution. Then, the treatment solutions at 10^−3-10^−7M were prepared from the stock solution (FIGS. 1-3). Two to three plants were placed per a pot (about 40×50 mm) and the treatment solution was added dropwise around the shoot apex at 5 ml/day per a pot. The treatment was performed on day 0 (the initiation date of treatment), 1, 3, 5 and 7, which set of treatments was regarded as one processing.
(§3) Glutathione treatment was performed after dissolving glutathione into the BSO solution at a concentration of 10^−4 M.
(§4) The effect of treatment was estimated based on the number of rosette leaves and the elongation rate of floral stem. […] Cold treatment was performed at 4° C. concurrently with a chemical treatment.
(§5) (3) BSO treatment and glutathione (GSH) treatment was concurrently performed. BSO solution (concentration: 10^−4 M) to which glutathione was added was used in the same manner as described above.
(§6) An aqueous solution of hydrogen peroxide was prepared immediately before use. Two to three plants were placed per a pot (about 40×50 mm). On 17 days after imbibition and thereafter, the treatment solution was added dropwise around the shoot apex at 5 ml/day per a pot. The treatments were performed on day 0 (the initiation date of treatment), 1, 3, 5 and 7, which set of treatments was regarded as one processing. The time of floral transition was compared using the rosette leaf number as an index. […] The values are expressed as mean±standard error.
as §6, with “As a redox-state regulator” for “An aqueous solution”, “cells, KCN or NaN3 was used. KCN or sodium azide” for “hydrogen peroxide”, “use and used at concentrations described in FIG. 6 or 7, respectively.” for “use.”, “mm)” for “mm). On 17 days after imbibition”, “and” for “and thereafter, the”, “pot. KCN or NaN3 treatment was started 17 days after imbibition.” for “pot.”

[3] = tested on: Arabidopsis thaliana wild type plant Ler; experiment: Regulation of flowering time in wild type plant Ler; format: in vivo
Description: as §1, §2, §3, §4, §5

[4] = tested on: Arabidopsis thaliana late-flowering mutant fca; format: in vivo; remark: listed apart in the source
Description: as §1, §2
The effect of treatment was estimated based on the number of rosette leaves and the elongation rate of floral stem. […]
An aqueous solution of hydrogen peroxide was prepared immediately before use. […] The values are expressed as mean±standard error.

[5] = tested on: Zinnia elegans L. (cv. Scarlet Frame); details: 60 mM hydrogen peroxide; 2 days after imbibition (FIG. 9)
Description: Soft papers were laid in plastic dishes (100×15 mm) and seeded with Zinnia elegans L. (cv. Scarlet Frame) (15 seeds/dish). To the dish was added a solution of hydrogen peroxide up to 15 ml, and allowed to germinate (light condition, 50 μE/m^2, 16-h light/8-h dark cycle; temperature 27° C.). Aqueous solutions each containing hydrogen peroxide at the concentrations indicated in FIG. 9 were prepared immediately before use and applied to the seeds. Observation was performed on 2 days after imbibition (see FIG. 9). In the figure, the concentration of hydrogen peroxide (unit: mM) used in treatment is shown at the right downside of each panel.

[6] = tested on: Arabidopsis thaliana wild type plant Ler; details: hydrogen peroxide 10^−3M; 23° C.; 1 week after imbibition; microscope
Description: Soft papers were laid in plastic dishes (100×15 mm) and seeded with Arabidopsis thaliana wild type plant Ler. To the dish was added 15 ml of an aqueous solution of hydrogen peroxide (10^−3M) for imbibition. Germination was allowed to arise at 23° C. and the root hair formation was observed 1 week after imbibition under a microscope.

[7] = tested on: Glycine max (cv: Tanbaguro); details: hydrogen peroxide 10^−3M; 23° C.; 1 week after imbibition; microscope
Description: Soft papers were laid in plastic dishes (100×15 mm) and seeded with Glycine max (cv: Tanbaguro). To the dish was added 15 ml of an aqueous solution of hydrogen peroxide (10^−3M) for imbibition.

[8] = tested on: Triticum aesivum L. (cv. Shirasagi); details: 144 hours (6 days) after imbibition; hydrogen peroxide concentrations of FIG. 8
Description: Soft papers were laid in plastic dishes (100×15 mm), and seeded with Triticum aesivum L. (cv. Shirasagi) or Oryza sativa L. (cv. Nipponbare) (15 seeds/dish). […] In the figure, the values are expressed as mean±standard error.

Compound: oxidized glutathione [GSSG]
- Adventitious buds/callus [1]: 2-3 buds/callus

Compound: CCCCS(=N)(=O)CCC(N)C(=O)O [BSO, L-buthionine sulfoximine]
- flowering time ([2]; fca, BSO treatment started 12 days after imbibition (FIG. 1A)): delayed
- rosette leaf number compared with the water treated control group ([2]; fca, BSO treatment started 17 days after imbibition, result 1 week afterward (FIG. 1C)): decreased
- bolting ([3]; Ler grown in an agar medium containing BSO just after germination): the bolting was delayed
- transition to flowering ([3]; Ler, BSO treatment started 12 days after imbibition (FIG. 1B)): significantly accelerated
- elongation rate of floral stem ([4]; fca, BSO treatment started day 17, monitored for several months (FIG. 2)): faster than that of control group
- Adventitious buds/callus [1]: 30 or more buds/callus

Compound: OO [hydrogen peroxide]
- time of floral transition based on the rosette leaf number ([2]; in vivo): accelerated
- elongation rate of floral stem ([4]; in vivo): accelerated
- cotyledon opening [5]: occurred earlier
- order of emergence of cotyledons and root at germination [5]: cotyledons came out from the pericarp before root did
- root hair formation [6]: not in the dish treated with hydrogen peroxide solution
- root hair formation [7]: not in the dish treated with hydrogen peroxide solution
- cell elongation (length of coleoptile) [8]: cells were elongated

Compound: N[C@@H](CCC(=O)N[C@@H](CS)C(=O)NCC(=O)O)C(=O)O [GSH, glutathione]
- transition to flowering at 1 mM GSH ([2]; in vivo): delay of the transition to flowering
- transition to flowering with increasing GSH concentration ([2]; in vivo): acceleration of the transition to flowering as GSH concentration increased first
- transition to flowering with increasing GSH concentration ([3]; Ler, GSH given concurrently with BSO 10^−4 M, at the time when BSO accelerates flowering (FIG. 3A)): delay of the transition to flowering as GSH concentration increased
- Adventitious buds/callus [1]: 2-3 buds/callus
